Publication PMC9851200, “Multiparameter phenotypic screening for endogenous TFEB and TFE3 translocation identifies novel chemical series modulating lysosome function” (Autophagy, 2022)

What was measured:
Format in all cases: binding
[1] = target: kinases (KINOMEscan panel) (Homo sapiens, UniProt P08581, M1250T); details: kinase MET(M1250T); NEW KINOMEscan
[2] = target: kinases (KINOMEscan panel) (Homo sapiens, UniProt Q15375); details: EPHA7; NEW KINOMEscan
[3] = target: kinases (KINOMEscan panel) (Homo sapiens, UniProt P29317); details: EPHA2; NEW KINOMEscan
Sequence of kinases (KINOMEscan panel) (Homo sapiens, UniProt P29317) (P29317 24-976): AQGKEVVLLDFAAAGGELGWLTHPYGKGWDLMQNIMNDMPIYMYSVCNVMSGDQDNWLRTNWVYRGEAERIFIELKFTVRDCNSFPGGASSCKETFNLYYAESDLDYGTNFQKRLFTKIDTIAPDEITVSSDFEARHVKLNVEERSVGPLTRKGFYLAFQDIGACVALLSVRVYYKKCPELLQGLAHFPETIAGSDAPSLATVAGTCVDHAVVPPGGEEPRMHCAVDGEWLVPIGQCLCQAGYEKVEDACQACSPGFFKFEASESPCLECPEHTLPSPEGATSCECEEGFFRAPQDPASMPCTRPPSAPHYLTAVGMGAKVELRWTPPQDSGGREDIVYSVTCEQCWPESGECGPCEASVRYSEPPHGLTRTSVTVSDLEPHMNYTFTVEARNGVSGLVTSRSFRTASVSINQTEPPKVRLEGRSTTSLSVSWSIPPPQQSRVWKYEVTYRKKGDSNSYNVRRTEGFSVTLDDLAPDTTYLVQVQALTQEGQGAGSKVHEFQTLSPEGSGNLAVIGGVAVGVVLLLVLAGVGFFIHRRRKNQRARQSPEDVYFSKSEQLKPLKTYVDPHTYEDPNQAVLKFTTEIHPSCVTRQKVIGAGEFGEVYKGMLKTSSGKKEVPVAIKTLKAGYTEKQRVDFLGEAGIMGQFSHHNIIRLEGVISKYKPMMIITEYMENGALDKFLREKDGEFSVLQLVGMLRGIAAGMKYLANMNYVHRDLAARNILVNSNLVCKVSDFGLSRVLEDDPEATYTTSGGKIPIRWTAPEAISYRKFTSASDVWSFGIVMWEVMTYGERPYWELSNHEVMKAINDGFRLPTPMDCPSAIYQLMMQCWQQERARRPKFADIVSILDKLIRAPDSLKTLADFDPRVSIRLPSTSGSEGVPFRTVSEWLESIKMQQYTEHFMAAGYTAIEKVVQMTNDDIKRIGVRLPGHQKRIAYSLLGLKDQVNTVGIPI

[4] = target: kinases (KINOMEscan panel) (Homo sapiens, UniProt Q13555); details: CAMK2G; NEW KINOMEscan
Sequence of kinases (KINOMEscan panel) (Homo sapiens, UniProt Q13555) (Q13555 whole entry): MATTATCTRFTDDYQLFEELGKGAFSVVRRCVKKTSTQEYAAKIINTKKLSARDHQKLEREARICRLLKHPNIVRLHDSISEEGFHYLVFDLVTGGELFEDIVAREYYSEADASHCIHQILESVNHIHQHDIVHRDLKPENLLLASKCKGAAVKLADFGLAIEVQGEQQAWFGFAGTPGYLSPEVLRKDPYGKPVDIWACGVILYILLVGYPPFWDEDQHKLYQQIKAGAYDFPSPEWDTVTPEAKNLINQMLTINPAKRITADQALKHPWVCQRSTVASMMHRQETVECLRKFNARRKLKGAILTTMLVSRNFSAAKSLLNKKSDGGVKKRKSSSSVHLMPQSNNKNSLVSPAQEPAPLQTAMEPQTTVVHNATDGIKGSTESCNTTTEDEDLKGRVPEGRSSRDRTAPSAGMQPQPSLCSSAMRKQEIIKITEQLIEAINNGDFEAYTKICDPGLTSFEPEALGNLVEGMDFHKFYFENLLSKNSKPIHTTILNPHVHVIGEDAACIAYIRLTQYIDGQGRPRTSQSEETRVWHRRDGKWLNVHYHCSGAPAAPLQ

[5] = target: T1, kinases (KINOMEscan panel) (Homo sapiens, UniProt Q9UL54); details: kinase TAOK2; NEW KINOMEscan
T1 sequence (Q9UL54 1-1235): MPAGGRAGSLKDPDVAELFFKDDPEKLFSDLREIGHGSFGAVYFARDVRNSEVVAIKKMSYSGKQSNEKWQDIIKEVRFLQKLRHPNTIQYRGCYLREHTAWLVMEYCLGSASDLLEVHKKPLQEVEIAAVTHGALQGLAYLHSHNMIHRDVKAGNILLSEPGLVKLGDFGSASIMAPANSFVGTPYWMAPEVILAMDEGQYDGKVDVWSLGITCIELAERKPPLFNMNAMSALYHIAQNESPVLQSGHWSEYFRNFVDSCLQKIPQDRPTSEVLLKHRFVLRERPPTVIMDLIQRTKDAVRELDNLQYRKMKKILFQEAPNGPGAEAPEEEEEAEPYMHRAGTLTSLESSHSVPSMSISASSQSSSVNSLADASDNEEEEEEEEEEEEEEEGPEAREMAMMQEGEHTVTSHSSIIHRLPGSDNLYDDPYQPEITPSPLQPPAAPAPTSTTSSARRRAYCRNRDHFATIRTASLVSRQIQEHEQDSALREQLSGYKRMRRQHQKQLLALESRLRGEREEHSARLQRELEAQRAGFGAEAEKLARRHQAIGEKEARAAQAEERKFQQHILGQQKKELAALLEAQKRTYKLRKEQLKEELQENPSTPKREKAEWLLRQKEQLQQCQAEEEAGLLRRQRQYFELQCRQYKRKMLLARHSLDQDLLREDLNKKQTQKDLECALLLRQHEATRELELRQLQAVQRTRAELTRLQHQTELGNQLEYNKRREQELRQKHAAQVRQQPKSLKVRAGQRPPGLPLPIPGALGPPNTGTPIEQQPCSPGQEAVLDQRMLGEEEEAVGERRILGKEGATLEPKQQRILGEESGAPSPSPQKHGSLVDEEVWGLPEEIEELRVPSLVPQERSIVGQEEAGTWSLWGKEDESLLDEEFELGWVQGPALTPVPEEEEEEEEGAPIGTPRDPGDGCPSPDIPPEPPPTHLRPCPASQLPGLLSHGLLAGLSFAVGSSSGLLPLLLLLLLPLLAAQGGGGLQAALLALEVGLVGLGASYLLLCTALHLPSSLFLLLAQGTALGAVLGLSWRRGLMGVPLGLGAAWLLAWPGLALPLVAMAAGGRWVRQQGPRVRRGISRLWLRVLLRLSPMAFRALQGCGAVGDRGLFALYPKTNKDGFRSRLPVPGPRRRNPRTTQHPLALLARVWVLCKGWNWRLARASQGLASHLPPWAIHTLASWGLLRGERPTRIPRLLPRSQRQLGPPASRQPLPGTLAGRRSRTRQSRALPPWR

[6] = target: kinases (KINOMEscan panel) (Homo sapiens, UniProt P16234); details: PDGFRA; NEW KINOMEscan
[7] = target: kinases (KINOMEscan panel) (Homo sapiens, UniProt P68400); details: CSNK2A1; NEW KINOMEscan
Sequence of kinases (KINOMEscan panel) (Homo sapiens, UniProt P68400) (P68400 whole entry): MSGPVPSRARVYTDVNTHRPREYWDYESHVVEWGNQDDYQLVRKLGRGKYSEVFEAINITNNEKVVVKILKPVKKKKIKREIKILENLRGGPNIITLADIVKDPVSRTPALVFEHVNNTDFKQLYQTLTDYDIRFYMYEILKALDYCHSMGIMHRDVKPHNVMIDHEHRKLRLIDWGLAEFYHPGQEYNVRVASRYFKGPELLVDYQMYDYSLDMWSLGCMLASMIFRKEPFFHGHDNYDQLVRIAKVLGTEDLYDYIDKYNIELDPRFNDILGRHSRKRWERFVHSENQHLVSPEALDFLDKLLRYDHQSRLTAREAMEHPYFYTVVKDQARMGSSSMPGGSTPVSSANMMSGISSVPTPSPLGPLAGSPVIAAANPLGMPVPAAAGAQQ

[8] = target: kinases (KINOMEscan panel) (Homo sapiens, UniProt P36888, D835V); details: NEW KINOMEscan
[9] = target: kinases (KINOMEscan panel) (Homo sapiens, UniProt P51617); details: kinase IRAK1; NEW KINOMEscan
Sequence of kinases (KINOMEscan panel) (Homo sapiens, UniProt P51617) (P51617 whole entry): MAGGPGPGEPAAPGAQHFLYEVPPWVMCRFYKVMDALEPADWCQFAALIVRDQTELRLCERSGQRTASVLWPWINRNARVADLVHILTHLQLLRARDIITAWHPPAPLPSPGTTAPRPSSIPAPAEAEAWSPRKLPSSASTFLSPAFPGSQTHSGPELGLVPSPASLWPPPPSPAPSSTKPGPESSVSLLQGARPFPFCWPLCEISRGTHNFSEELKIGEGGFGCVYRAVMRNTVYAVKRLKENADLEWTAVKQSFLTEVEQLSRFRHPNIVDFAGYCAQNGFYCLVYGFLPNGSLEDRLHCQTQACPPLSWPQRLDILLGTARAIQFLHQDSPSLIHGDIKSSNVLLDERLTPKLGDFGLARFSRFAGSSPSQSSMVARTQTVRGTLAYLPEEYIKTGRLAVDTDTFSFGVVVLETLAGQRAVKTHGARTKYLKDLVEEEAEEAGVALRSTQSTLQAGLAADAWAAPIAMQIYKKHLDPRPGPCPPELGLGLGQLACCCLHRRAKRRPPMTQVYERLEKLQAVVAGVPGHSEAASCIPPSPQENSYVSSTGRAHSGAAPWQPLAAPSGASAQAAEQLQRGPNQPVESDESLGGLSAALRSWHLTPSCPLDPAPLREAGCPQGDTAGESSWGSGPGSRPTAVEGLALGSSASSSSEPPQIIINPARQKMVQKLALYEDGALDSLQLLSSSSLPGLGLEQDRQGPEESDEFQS

[10] = target: T2, kinases (KINOMEscan panel) (Homo sapiens, UniProt P52333); details: kinase JAK3(JH1domain-catalytic); NEW KINOMEscan
T2 sequence (P52333 1-1124): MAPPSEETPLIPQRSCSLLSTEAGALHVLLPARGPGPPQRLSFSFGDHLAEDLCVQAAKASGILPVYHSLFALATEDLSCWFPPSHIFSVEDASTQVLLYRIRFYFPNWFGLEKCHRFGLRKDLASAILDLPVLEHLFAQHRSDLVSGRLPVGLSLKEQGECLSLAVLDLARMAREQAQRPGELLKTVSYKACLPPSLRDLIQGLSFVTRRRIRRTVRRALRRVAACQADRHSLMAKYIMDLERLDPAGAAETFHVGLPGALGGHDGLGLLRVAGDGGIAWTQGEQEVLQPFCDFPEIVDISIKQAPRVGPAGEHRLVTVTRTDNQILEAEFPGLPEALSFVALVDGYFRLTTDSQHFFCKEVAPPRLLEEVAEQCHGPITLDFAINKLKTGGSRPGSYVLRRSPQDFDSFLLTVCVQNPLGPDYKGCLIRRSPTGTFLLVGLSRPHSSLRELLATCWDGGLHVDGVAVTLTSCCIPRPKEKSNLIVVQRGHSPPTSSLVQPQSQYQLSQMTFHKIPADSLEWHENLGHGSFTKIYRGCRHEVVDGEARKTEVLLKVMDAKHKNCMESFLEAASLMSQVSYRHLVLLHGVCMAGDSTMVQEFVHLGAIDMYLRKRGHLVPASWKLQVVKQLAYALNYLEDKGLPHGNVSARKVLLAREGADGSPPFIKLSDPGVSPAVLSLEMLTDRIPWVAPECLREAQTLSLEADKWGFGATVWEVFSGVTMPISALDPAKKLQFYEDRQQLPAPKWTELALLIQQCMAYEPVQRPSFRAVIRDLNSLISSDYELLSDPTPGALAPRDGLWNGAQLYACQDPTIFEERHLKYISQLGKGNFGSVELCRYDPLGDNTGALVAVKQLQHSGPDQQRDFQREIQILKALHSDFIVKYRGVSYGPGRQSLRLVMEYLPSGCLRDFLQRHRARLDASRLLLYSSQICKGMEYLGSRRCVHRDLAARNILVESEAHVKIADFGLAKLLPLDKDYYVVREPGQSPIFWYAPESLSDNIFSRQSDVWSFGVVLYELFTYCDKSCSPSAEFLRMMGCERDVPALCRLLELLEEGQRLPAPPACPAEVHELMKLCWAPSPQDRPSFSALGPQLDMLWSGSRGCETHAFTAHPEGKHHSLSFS

Sequence of kinases (KINOMEscan panel) (Homo sapiens, UniProt P08581, M1250T) (P08581 25-1390 M1250T): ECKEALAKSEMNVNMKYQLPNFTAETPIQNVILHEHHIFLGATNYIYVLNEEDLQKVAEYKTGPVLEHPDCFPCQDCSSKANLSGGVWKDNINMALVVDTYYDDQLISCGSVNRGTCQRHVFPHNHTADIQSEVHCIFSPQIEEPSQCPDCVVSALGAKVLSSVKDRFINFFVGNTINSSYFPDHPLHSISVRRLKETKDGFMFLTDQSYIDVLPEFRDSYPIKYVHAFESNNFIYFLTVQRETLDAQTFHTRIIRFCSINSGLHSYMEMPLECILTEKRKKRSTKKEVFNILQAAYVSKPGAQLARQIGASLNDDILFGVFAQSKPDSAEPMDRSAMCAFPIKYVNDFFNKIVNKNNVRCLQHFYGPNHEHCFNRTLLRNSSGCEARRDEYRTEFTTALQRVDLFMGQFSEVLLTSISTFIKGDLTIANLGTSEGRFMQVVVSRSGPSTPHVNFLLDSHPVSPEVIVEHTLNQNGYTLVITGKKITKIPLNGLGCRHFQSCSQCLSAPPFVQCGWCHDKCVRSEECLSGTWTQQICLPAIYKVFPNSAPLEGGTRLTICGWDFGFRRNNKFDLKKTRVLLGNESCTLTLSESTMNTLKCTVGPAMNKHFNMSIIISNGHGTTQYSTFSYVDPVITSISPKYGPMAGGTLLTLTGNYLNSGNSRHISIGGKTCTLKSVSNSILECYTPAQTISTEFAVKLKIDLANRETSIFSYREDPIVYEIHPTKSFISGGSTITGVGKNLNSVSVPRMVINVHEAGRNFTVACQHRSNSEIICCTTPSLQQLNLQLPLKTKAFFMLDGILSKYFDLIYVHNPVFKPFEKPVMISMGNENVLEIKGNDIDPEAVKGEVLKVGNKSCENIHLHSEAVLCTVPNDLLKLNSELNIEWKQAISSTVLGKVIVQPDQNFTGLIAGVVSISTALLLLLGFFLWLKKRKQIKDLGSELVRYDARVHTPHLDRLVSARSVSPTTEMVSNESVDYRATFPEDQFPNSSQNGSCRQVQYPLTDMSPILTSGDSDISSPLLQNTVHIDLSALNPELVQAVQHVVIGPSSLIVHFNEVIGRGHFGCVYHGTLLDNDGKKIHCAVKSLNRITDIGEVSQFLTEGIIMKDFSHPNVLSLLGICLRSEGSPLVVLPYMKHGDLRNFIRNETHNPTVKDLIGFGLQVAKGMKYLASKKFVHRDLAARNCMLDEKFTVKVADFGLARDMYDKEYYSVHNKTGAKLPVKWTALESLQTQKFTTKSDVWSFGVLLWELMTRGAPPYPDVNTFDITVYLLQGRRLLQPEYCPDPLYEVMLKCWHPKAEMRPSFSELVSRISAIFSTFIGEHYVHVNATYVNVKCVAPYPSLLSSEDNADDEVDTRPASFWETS
Sequence of kinases (KINOMEscan panel) (Homo sapiens, UniProt Q15375) (Q15375 28-998): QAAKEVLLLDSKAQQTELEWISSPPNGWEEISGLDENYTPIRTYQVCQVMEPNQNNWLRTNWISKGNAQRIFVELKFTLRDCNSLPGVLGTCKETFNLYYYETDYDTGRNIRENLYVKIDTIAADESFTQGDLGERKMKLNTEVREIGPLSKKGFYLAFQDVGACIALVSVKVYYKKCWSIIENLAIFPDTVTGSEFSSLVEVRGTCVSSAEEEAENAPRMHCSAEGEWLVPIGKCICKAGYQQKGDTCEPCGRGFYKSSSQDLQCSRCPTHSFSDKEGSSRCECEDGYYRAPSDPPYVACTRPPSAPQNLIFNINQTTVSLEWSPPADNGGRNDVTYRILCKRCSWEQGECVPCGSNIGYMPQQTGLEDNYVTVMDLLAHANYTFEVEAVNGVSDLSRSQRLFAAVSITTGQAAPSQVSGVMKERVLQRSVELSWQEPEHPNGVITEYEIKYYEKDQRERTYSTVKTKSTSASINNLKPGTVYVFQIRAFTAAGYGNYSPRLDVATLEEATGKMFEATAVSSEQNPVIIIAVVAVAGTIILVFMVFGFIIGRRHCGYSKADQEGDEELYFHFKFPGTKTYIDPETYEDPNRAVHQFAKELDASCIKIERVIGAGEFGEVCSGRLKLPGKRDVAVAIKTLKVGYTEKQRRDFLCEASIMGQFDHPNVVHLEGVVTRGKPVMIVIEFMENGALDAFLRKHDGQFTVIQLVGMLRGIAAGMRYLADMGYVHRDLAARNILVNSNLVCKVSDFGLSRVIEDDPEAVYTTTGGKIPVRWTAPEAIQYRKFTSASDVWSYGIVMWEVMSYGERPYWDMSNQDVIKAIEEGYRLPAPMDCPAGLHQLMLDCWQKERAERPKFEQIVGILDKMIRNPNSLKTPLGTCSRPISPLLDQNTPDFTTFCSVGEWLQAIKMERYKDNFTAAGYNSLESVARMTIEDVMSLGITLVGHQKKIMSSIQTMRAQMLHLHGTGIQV

Compound	KINOMEscan MET(M1250T) [1]	KINOMEscan EPHA7 [2]	KINOMEscan EPHA2 [3]	KINOMEscan CAMK2G [4]	KINOMEscan TAOK2 [5]	KINOMEscan PDGFRA [6]	KINOMEscan CSNK2A1 [7]	KINOMEscan FLT3(D835V) [8]	KINOMEscan IRAK1 [9]	KINOMEscan JAK3(JH1domain-catalytic) [10]
Cc1cccc(-c2nc(Nc3ccc4nn(C)cc4c3)c3ccccc3n2)n1 [NK167]	0	0	0	0	19	0	0	19	0	0
Cc1cccc(-c2nc(N(C)c3ccc4ncsc4c3)c3ccccc3n2)n1 [NK-161]	3	0	2	0	20	0	19	30	0	0
